This note sets out measurements from patent publication US8017575B2 (priority 2004, dated 2011).

In series [1] the test system is beta receptors. In words: Heart rate test of beta blockade (propranolol vs isoproterenol). It counts as in vivo, rat. The procedure: Identification of Blocking Dose of […]: A standard surgical preparation, laparotomy and portal vein puncture were performed on an anesthetized rat. […] (Heart rate was measured using a Grass AC/DC Strain gauge amplifier and National Instrument data acquisition software.) Following stabilization, isoproterenol (0.5 μg/kg/min-IV) was administered at a rate of 0.1 ml/min for 5 minutes. Heart rate and glucose levels were analyzed in the last 30 seconds of isoproterenol administration and 15 minutes subsequent to discontinuation of isoproterenol infusion.

Series [2] has as its system insulin sensitivity. In words: Rapid Insulin Sensitivity Test (RIST) before/after hemorrhage to 50 mmHg (hemorrhage-induced HDIR). In kind it is in vivo, rat. The procedure: (§1) Surgical Procedures: Male Sprague Dawley rats (Charles River, St. Constant, Quebec, Canada) were housed in climate-controlled conditions for at least 6 days prior to surgical preparation. The animals were fasted for 8 hours, and then allowed ad lib access to standard rat chow for 2 hours prior to surgical preparation. […] The animals were weighed and anesthetized by an intraperitoneal injection of pentobarbital sodium (65 mg/ml, Somnotol, Biomeda-MTC Animal Health Inc., Cambridge Canada). Temperature was monitored by a rectal thermometer and kept constant at 37.5±0.5° C. by a heated surgical table and an overhead lamp. […] Animals were heparinized (100 IU/kg). Blood samples were taken by puncturing the arterial side of the arterial-venous shunt. The infusion of pharmacological agents was done by puncturing and inserting an infusion line into the silicon sleeve of the venous side of the shunt. Arterial pressure was measured by clamping the silicon sleeve on the venous side of the shunt, and measuring pressure from a side branch. A tracheotomy was performed (Micro-Renathane Tubing (095), Braintree Scientific Inc.) The left jugular vein was then cannulated with PE60 tubing in order to allow for continuous supplemental anesthetic (sodium pentobarbital, 2.16 mg/ml saline) infusion at a rate of 0.5 ml/hr/100 g of body weight. An infusion line was inserted into a silicon sleeve on the jugular supplement line for glucose administration and was controlled by a variable infusion pump (Genie, Kent Scientific Corporation, Litchfield, Mass.). The cannulation of the femoral artery and vein, the tracheotomy and the jugular vein cannulation is the standard surgical preparation.
(§2) After surgical completion, the animal was allowed to stabilize for 30 minutes, after which arterial blood samples (25 μl) were taken from the shunt and analyzed for blood glucose concentration using a glucose oxidase analyzer (Yellow Springs Instruments, Yellow Springs, Ohio). Samples were analyzed at five-minute intervals until 3 successive stable measurements were obtained. The mean of these 3 samples was used as the basal glucose level. […] At 45 seconds, a glucose infusion was initiated and adjusted to maintain euglycemia as determined by the basal glucose level. An arterial sample was taken from the arterial-venous shunt every 2 minutes during the RIST, and the glucose infusion was increased or decreased accordingly. […] The amount of glucose infused over the RIST (mg glucose/kg of body weight) is known as the RIST index.
(§3) Following the standard surgical procedure described above, a control RIST was performed. The anesthetized animal was hemorrhaged to an arterial blood pressure of 50 mmHg and held at this pressure for a 10 minute interval, by withdrawing additional blood as needed. Blood was not returned. The animal was hemorrhaged from the arterial side of the shunt, using a 23-gauge needle attached to a syringe, at a rate of 0.5 ml/min. Arterial blood pressure was measured from the vascular shunt during brief occlusion of the venous side of the shunt. Following the hemorrhage, arterial blood glucose levels were measured until they became stable for at least 15 minutes and another RIST was performed.
A control RIST was performed after a 30 minute stabilization period. […] A post hemorrhage RIST was then done as soon as a stable glycemic baseline had been established.
Effect of Phentolamine on HDIR following Hemorrhage: Following a standard surgical preparation, a laparotomy and portal puncture was performed. After a 30 minute stabilization period, a control RIST was performed. Following the RIST, phentolamine (400 μg/kg/min-IPV, 10 minute infusion at a rate of 0.025 ml/min), or cyclosomatostatin (20 μg/kg/min-IPV, continuous infusion at a rate of 0.025 ml/min) was administered. The rat was restabilized and then hemorrhaged to an arterial blood pressure of 50 mmHg and held at this pressure for a ten-minute interval.

A short description of series [3]: Arterial blood glucose (glycemia) during drug infusion and hemorrhage. In kind it is in vivo, rat. The procedure:
as §2, §3
Effect of Phentolamine on HDIR following Hemorrhage: Following a standard surgical preparation, a laparotomy and portal puncture was performed. After a 30 minute stabilization period, a control RIST was performed. Following the RIST, phentolamine (400 μg/kg/min-IPV, 10 minute infusion at a rate of 0.025 ml/min), or cyclosomatostatin (20 μg/kg/min-IPV, continuous infusion at a rate of 0.025 ml/min) was administered. The rat was restabilized and then hemorrhaged to an arterial blood pressure of 50 mmHg and held at this pressure for a ten-minute interval. […]

Series [4] has as its system insulin sensitivity. Nature of the series: RIST during somatostatin infusion (somatostatin-induced HDIR). It counts as in vivo, rat. The method, then: as §1, with “The cannulation of the femoral artery and vein, the tracheotomy and the jugular vein cannulation is the standard surgical preparation.” left out
After surgical completion, the animal was allowed to stabilize for 30 minutes, after which arterial blood samples (25 μl) were taken from the shunt and analyzed for blood glucose concentration using a glucose oxidase analyzer (Yellow Springs Instruments, Yellow Springs, Ohio). Samples were analyzed at five-minute intervals until 3 successive stable measurements were obtained. […] At 45 seconds, a glucose infusion was initiated and adjusted to maintain euglycemia as determined by the basal glucose level. […]

The conditions of series [5]: for Volume of Distribution, Percent Change (reduction): SMA ligation vs control. The method, then:
Following the hemorrhage, another RIST was performed. […] The samples were centrifuged and the plasma was frozen immediately on dry ice, and stored at −80° C.
A snare was inserted around the artery so that it could be occluded. The animal was allowed to rest for a 30 minute interval.

Setting [6] is: SMA ligation series, SMA ligated.
Setting [7] is: hemorrhage series, control, insulin 50 mU/kg 30 second bolus.

Where “and” joins values, the source holds several entries; their conditions need not be identical. Equal values may be shown once. Read-outs that look alike come from different tables or passages of the source.

For `CC(C)NCC(O)c1ccc(O)c(O)c1` (stereo not shown) [isoproterenol], the “heart rate (remained at original baseline level)” value in series [1] (isoproterenol 0.5 μg/kg/min-IV subsequent to propranolol 1.5 mg/kg-IPV) is listed as 415.3±5.9 beats/min. Moreover, the “increase in basal heart rate” value in series [1] (isoproterenol alone) was 125.2±9.8 beats/min.

As to `Cc1ccc(N(CC2=NCCN2)c2cccc(O)c2)cc1` [phentolamine], in series [2] (Example 7: phentolamine 400 μg/kg/min-IPV), the “prevention of HDIR subsequent to hemorrhage” value is “unable to prevent HDIR”. In addition, in series [2] (Example 7: phentolamine 400 μg/kg/min-IPV prior to hemorrhage, control 213.1±8.4, n=7), the “post hemorrhage RIST index” value was 145.4±9.2 mg of glucose/kg. Moreover, the “decrease in insulin sensitivity (RIST index) between control and post hemorrhage RIST” value in series [2] (Example 7: phentolamine 400 μg/kg/min-IPV prior to hemorrhage, n=7) is 31.8%; in series [2] (Example 7: phentolamine 400 μg/kg/min-IPV prior to hemorrhage, n=7, listed as Phentolamine) it was 31.8% and 31.8±5.5%. In addition, in series [3] (phentolamine 400 μg/kg/min-IPV prior to hemorrhage (18.2±4.2% without agents)), the “increase in glycemia during hemorrhage” value is 1.1±0.9% and 1.1%.

Take `CC(C)NCC(O)COc1cccc2ccccc12` (stereo not shown) [propranolol]: the “prevention of HDIR subsequent to hemorrhage” value in series [2] (Example 8: propranolol 1.5 mg/kg-IPV) is “unable to prevent HDIR”. The “increase in glycemia following hemorrhage” value in series [3] (propranolol 1.5 mg/kg-IPV prior to hemorrhage) was 17.4±3.3% and 17.4%. Moreover, the “block of the acceleration in heart rate caused by isoproterenol” value in series [1] (propranolol 1.5 mg/kg) was “completely block”. In addition, in series [1] (propranolol 1.5 mg/kg-IPV), the “reduction in basal heart rate” value is 70.6±1.3 beats/min.

Turning to cyclosomatostatin, the “prevention of somatostatin-induced HDIR” value in series [4] (Example 6: cyclosomatostatin 20 μg/kg/min-IPV continuous infusion, n=3) is given as “significantly prevented the occurrence of HDIR”. Moreover, the “cyclosomatostatin and somatostatin RIST index” value in series [4] (Example 6: cyclosomatostatin 20 μg/kg/min-IPV with somatostatin 0.16 μg/kg/min, control 215.9±7.4, n=3) is listed as 213.1±8.6 mg of glucose/kg. Moreover, the “blockade of somatostatin induced HDIR” value in series [4] (pilot studies, cyclosomatostatin 10 μg/kg/min) is given as “did not produce a full blockade”. In series [2] (Example 9: cyclosomatostatin 20 μg/kg/min-IPV continuous, started prior to hemorrhage, initial RIST 214.3±8.8, n=5), the “post hemorrhage RIST index” value is 217.5±8.5 mg of glucose/kg. For the same compound, in series [2] (Example 9: cyclosomatostatin 20 μg/kg/min-IPV prior to hemorrhage, n=5), the “prevention of HDIR following hemorrhage” value is recorded as “prevented the occurrence of HDIR”. The “increase in glycemia following hemorrhage” value in series [3] (cyclosomatostatin 20 μg/kg/min-IPV, infused 67.2±4.8 minutes) was 19.9±2.0%.

In the case of “insulin: Human insulin (Humulin R) purchased from Eli Lilly”, the Clearance worked out at 0.667 ± 0.0167 mL/min/kg in series [5] (setting [6]) and 1.03 ± 0.15 mL/min/kg in series [5] (setting [7]). The entries for the “Volume of Distribution” value in series [5] (setting [6]) and in series [5] (setting [7]) were 0.03 ± 0.003 L/kg and 0.056 ± 0.012 L/kg, respectively. Moreover, the “Volume of Distribution, Percent Change (reduction)” value in series [5] came out at 69.4±2.2%; in series [5] (listed as Insulin), 69.39%. Besides, the “insulin concentration at the 1 minute mark of the RIST” value in series [5] (after hemorrhage, n=4) was 27.5 ± 3.8 µg/L. In addition, the “time for insulin to decrease to baseline” value in series [5] (both control and hemorrhage RISTs, 30 second bolus 50 mU/kg) was found to be 5 min.
